According to article PMC5267519, “Evaluation of a Novel Renewable Hepatic Cell Model for Prediction of Clinical CYP3A4 Induction Using a Correlation-Based Relative Induction Score Approach” (Drug Metabolism and Disposition, 2017):
Values joined by “and” are separate entries in the source; they are usually repeats but may differ in a detail not shown here. Identical values can stand only once. Like-named read-outs stand apart in the source and are kept apart here.

What was measured:
CYP3A4 mRNA [1] = test: Concentration-dependent CYP3A4 mRNA induction in HepatoCells; conditions: for Emax / EC50: CYP3A4 mRNA fold increase, NI = no induction observed at tested concentration; for Emax: 3 consecutive days treatment, quinidine: only observed maximum fold induction; for RIS Based on mRNA: RIS = (Emax × Cmax,ub)/(EC50 + Cmax,ub); for EC50: human, nominal concentrations; for RIS Based on mRNA, Mean: mean of lots 2B, 3A, 3B; for RIS values based on CYP3A4 mRNA level (range stated for group of compounds): range over named compounds and three lots; for CYP3A4 mRNA expression induction response (in words): three lots of HepatoCells, eight concentrations
Protocol: (§1) Cryopreserved HepatoCells were thawed quickly in a 37°C water bath and transferred to Corning Culture Medium for HepatoCells supplemented with 10% fetal bovine serum and Pen/Strep (plating medium). After the cryo-freezing media was removed by centrifugation at 150g for 10 minutes, the cell pellet was resuspended in plating media and cell count was performed with trypan blue. Cells were then seeded in a Corning BioCoat Collagen I–coated plate (500,000 cells/well in 24-well plate or 80,000 cells/well in 96-well plate), and plates were incubated in a 37°C incubator with 5% CO2. […] Cells were then returned to the incubator for overnight culture.
(§2) Stock solutions of test compounds were prepared by dissolving each compound in DMSO and serially diluting the solutions in DMSO. Final working solutions were freshly prepared daily by diluting the 1000× stock solutions in culture medium. Three lots of HepatoCells culture were treated with eight concentrations of test compounds. Both enzymatic activity (testosterone 6β hydroxylase activity) and mRNA expression were measured as endpoints using LC-MS/MS and real-time reverse-transcription polymerase chain reaction, respectively.
(§3) Only curve fitting with correlation coefficient (R^2) > 0.85 is accepted. At high concentrations for some compounds, if toxicity or insolubility becomes obvious, such data are excluded from curve fitting.

CYP3A4 [2] = conditions: cited from earlier work
CYP3A4 [3] = conditions: for Predicted AUC change using HepatoCells (range of lots): three lots, mRNA or activity basis not given
Text: The resulting fitting equation was used to calculate predicted in vivo AUC change for each compound. […] Prediction accuracy using HepatoCells was also compared with prediction accuracy using primary human hepatocytes.

CYP3A4 [4] = conditions: for RIS Based on Enzyme Activity: RIS = (Emax × Cmax,ub)/(EC50 + Cmax,ub); for RIS values based on enzyme activity (range stated for group of compounds): range over named compounds and three lots
MRP2 = biological target: T1, MRP2 (Homo sapiens, UniProt Q92887); test: CDFDA staining of bile canaliculi in HepatoCells sandwich culture; type: cell-based; conditions: pretreatment with inhibitor
T1 construct: the functional efflux transporter MRP2 is expressed and localized at the apical surface of HepatoCells; host or cells: Corning HepatoCells, collagen/Matrigel sandwich culture
T1 sequence (Q92887 whole entry): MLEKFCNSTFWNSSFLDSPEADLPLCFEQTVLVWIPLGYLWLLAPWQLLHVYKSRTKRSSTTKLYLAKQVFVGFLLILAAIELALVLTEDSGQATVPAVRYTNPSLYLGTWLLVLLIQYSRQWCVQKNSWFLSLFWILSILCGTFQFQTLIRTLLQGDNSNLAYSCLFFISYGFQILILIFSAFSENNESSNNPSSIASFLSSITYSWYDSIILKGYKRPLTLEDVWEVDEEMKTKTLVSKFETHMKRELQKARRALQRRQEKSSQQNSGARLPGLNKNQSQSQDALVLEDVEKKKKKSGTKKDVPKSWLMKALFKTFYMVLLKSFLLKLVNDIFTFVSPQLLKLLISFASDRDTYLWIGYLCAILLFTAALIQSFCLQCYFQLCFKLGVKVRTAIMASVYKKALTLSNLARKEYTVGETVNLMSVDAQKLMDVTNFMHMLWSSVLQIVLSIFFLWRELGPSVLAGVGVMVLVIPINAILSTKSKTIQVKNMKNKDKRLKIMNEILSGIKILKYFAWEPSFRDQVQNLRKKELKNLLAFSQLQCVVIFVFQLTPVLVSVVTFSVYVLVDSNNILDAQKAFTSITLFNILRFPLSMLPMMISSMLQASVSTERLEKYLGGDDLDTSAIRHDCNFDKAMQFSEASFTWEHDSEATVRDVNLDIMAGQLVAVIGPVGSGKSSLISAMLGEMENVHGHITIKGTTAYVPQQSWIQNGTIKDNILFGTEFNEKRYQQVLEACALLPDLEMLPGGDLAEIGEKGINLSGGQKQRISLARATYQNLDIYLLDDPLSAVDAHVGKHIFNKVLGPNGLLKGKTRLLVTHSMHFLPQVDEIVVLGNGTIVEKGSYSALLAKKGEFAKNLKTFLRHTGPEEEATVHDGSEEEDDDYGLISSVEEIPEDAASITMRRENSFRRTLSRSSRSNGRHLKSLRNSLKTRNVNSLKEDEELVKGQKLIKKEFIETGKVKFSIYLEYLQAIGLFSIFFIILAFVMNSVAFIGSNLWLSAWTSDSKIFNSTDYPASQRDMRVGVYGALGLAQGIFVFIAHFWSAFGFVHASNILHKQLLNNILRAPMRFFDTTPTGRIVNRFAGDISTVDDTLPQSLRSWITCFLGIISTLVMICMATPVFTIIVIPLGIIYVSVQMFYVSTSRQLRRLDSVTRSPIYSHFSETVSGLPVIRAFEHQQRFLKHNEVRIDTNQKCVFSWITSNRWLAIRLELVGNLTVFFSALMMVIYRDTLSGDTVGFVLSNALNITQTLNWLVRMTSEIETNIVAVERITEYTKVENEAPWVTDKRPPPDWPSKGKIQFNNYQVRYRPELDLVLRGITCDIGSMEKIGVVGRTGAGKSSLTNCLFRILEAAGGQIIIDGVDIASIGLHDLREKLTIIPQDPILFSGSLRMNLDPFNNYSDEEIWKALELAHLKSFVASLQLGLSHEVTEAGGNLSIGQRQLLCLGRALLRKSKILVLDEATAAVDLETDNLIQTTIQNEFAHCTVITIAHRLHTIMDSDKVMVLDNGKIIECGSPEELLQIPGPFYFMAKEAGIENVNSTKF
Protocol: On day 1, HepatoCells were plated on collagen-coated dishes. Four to six hours after seeding, cell monolayer was overlaid with Matrigel solution at 0.25 mg/mL (as described above). Daily medium change was performed from day 2 to day 4 using fresh Corning Culture Medium for HepatoCells. On day 5, the sandwich cultures were incubated with carboxy-dichlorofluorescein diacetate (CDFDA), a multidrug-resistant protein 2 (MRP2) substrate that is metabolized by cytosolic esterases. The fluorescent CDFDA metabolite accumulated in bile canalicular lumens was visualized using fluorescence microscopy.

CYP1A2 [5] = test: CYP1A2 induction response to prototypical inducer, enzyme activity, HepatoCells; conditions: human, probe phenacetin 100 µM
Protocol: as §1

CYP1A2 [6] = test: CYP1A2 induction response to prototypical inducer, enzyme activity, primary human hepatocytes; conditions: cryopreserved primary human hepatocytes, probe phenacetin 100 µM
CYP3A4 mRNA [7] = tested on: CYP3A4 mRNA
Protocol: as §1, §2, §3

[8] = clinical DDI, decrease in AUC of victim drug (midazolam or nonmidazolam), ref Zhang et al., 2014
[9] = Lot 2B HepatoCells, RIS calibration curve
[10] = Lot 3A HepatoCells, RIS calibration curve
[11] = Lot 3B HepatoCells, RIS calibration curve
[12] = three lots of HepatoCells, eight concentrations

Row | SMILES | Emax (CYP3A4 mRNA [1]; Lot 2B HepatoCells) [Fold] | RIS Based on mRNA (CYP3A4 mRNA [1]; Lot 2B) | Emax (CYP3A4 mRNA [1]; Lot 3A HepatoCells) [Fold] | RIS Based on mRNA (CYP3A4 mRNA [1]; Lot 3A) | Emax (CYP3A4 mRNA [1]; Lot 3B HepatoCells) [Fold] | RIS Based on mRNA (CYP3A4 mRNA [1]; Lot 3B) | EC50 (CYP3A4 mRNA [1]; EC50, Lot 2B HepatoCells) [µM] | EC50 (CYP3A4 mRNA [1]; EC50, Lot 3A HepatoCells) [µM] | EC50 (CYP3A4 mRNA [1]; EC50, Lot 3B HepatoCells) [µM] | RIS Based on mRNA, Mean (CYP3A4 mRNA [1]) | RIS values based on CYP3A4 mRNA level (range stated for group of compounds) (CYP3A4 mRNA [1]) | Observed % AUC Change (CYP3A4 [2]; [8]) [%] | Predicted % AUC Change Based on Activity (CYP3A4 [3]; [9]) [%] | Predicted % AUC Change Based on mRNA (CYP3A4 [3]; [9]) [%] | Predicted % AUC Change Based on Activity (CYP3A4 [3]; [10]) [%] | Predicted % AUC Change Based on mRNA (CYP3A4 [3]; [10]) [%] | RIS Based on Enzyme Activity (CYP3A4 [4]; Lot 2B) | RIS Based on Enzyme Activity (CYP3A4 [4]; Lot 3A) | RIS Based on Enzyme Activity (CYP3A4 [4]; Lot 3B) | RIS Based on Enzyme Activity, Mean (CYP3A4 [4]; mean of lots 2B, 3A, 3B) | also measured
1 | NC(=O)N1c2ccccc2C=Cc2ccccc21 [Carbamazepine] | 16 | 0.76 | 10 | 0.77 | 14 | 1.3 | 108 | 65 | 53 | 0.9 | 0.8–25 | 94 | 92 | 86 | 92 | 87 | 0.67 | 0.8 | 0.9 | 0.8 | Predicted % AUC Change Based on Activity (CYP3A4 [3]; [11]): 87%; Predicted % AUC Change Based on mRNA (CYP3A4 [3]; [11]): 95%; RIS values based on enzyme activity (range stated for group of compounds) (CYP3A4 [4]): 0.7–24
2 | C[C@H]1O[C@@H](O[C@H]2[C@@H](O)C[C@H](O[C@H]3[C@@H](O)C[C@H](O[C@H]4CC[C@@]5(C)[C@H](CC[C@@H]6[C@@H]5C[C@@H](O)[C@]5(C)[C@@H](C7=CC(=O)OC7)CC[C@]65O)C4)O[C@@H]3C)O[C@@H]2C)C[C@H](O)[C@@H]1O [Digoxin] | – | – | – | – | – | – | – | – | – | – | – | – | – | – | – | – | – | – | – | – | CYP3A4 mRNA expression induction response (in words) (CYP3A4 mRNA [1]): no induction response; CYP3A4 enzyme activity induction response (in words) (CYP3A4 [4]; [12]): no induction response
3 | CCOC(=O)c1ncn2c1CN(C)C(=O)c1cc(F)ccc1-2 [Flumazenil] | – | – | – | – | – | – | – | – | – | – | – | – | – | – | – | – | – | – | – | – | CYP3A4 mRNA expression induction response (in words) (CYP3A4 mRNA [1]): no induction response; CYP3A4 enzyme activity induction response (in words) (CYP3A4 [4]; [12]): no induction response
4 | CN(C)C(=O)CCSC(SCCC(=O)O)c1cccc(/C=C/c2ccc3ccc(Cl)cc3n2)c1 (stereo not shown) [MK571] | – | – | – | – | – | – | – | – | – | – | – | – | – | – | – | – | – | – | – | – | effect on CDFDA staining of bile canaliculi (MRP2): inhibited the specific CDFDA staining of bile canaliculi
5 | CN(Cc1cnc2nc(N)nc(N)c2n1)c1ccc(C(=O)N[C@@H](CCC(=O)O)C(=O)O)cc1 [Methotrexate] | – | – | – | – | – | – | – | – | – | – | – | – | – | – | – | – | – | – | – | – | CYP3A4 mRNA expression induction response (in words) (CYP3A4 mRNA [1]): no induction response; CYP3A4 enzyme activity induction response (in words) (CYP3A4 [4]; [12]): no induction response
6 | COc1ccc2[nH]c([S+]([O-])Cc3ncc(C)c(OC)c3C)nc2c1 (stereo not shown) [Omeprazole] | 24 | 0.069 | 45 | 0.073 | 27 | 0.079 | 13 | 23 | 13 | 0.074 | 0.0012–0.16 | −25 | 0.11 | 1.7 | 0.002 | 0.14 | 0.015 | 0.009 | 0.007 | 0.0103 | fold induction at 72 h, 50 µM (CYP1A2 [5]): 32.4; Predicted % AUC Change Based on Activity (CYP3A4 [3]; [11]): 0.017%; Predicted % AUC Change Based on mRNA (CYP3A4 [3]; [11]): 0.35%; Predicted AUC change using HepatoCells (range of lots) (CYP3A4 [3]): 0.1–1.7%; fold induction at 72 h, 50 µM (CYP1A2 [6]): 28.7; RIS values based on enzyme activity (range stated for group of compounds) (CYP3A4 [4]): 0.0004–0.09
7 | O=C1NC(=O)C(c2ccccc2)(c2ccccc2)N1 [Phenytoin] | 23 | 7.5 | 38 | 12.1 | 35 | 8.5 | 15 | 16 | 23 | 9.4 | 0.8–25 | 94 | 96 | 98 | 96 | 98 | 1.8 | 2.3 | 2.4 | 2.2 | Predicted % AUC Change Based on Activity (CYP3A4 [3]; [11]): 97%; Predicted % AUC Change Based on mRNA (CYP3A4 [3]; [11]): 95%; Predicted AUC change using HepatoCells (range of lots) (CYP3A4 [3]): 95–98%; RIS values based on enzyme activity (range stated for group of compounds) (CYP3A4 [4]): 0.7–24
8 | C=C[C@H]1C[N@@]2CC[C@H]1C[C@@H]2[C@@H](O)c1ccnc2ccc(OC)cc12 [Quinidine] | – | – | – | – | – | – | – | – | – | – | – | – | – | – | – | – | – | – | – | – | CYP3A4 mRNA induction over solvent vehicle control (CYP3A4 mRNA [7]): one- to twofold increase; CYP3A4 enzyme activity induction over solvent vehicle control (CYP3A4 [4]): one- to twofold increase; CYP3A4 enzyme activity induction response (in words) (CYP3A4 [4]): did not cause a concentration-dependent increase
9 | O=C1C(CC[S+]([O-])c2ccccc2)C(=O)N(c2ccccc2)N1c1ccccc1 (stereo not shown) [Sulfinpyrazone] | 31 | 1.2 | 53 | 1.8 | 38 | 1.1 | 23 | 28 | 32 | 1.4 | – | – | – | – | – | – | 1.5 | 1.4 | 1.2 | 1.3 | –
10 | CN(C/C=C/C#CC(C)(C)C)Cc1cccc2ccccc12 [Terbinafine] | 20 | – | 24 | – | 21 | – | – | – | – | – | – | – | – | – | – | – | – | – | – | – | Observed % AUC Change (CYP3A4 [2]; human, in vivo): 25%; Predicted % AUC Change Based on Activity (CYP3A4 [3]): 29% and 15%; Predicted AUC change using enzyme activity data (range of lots) (CYP3A4 [3]): 15–29%; Predicted AUC change using mRNA data (range of lots) (CYP3A4 [3]): 8–19%; RIS Based on mRNA, Mean (CYP3A4 mRNA [7]; human): 0.19; RIS Based on Enzyme Activity, Mean (CYP3A4 [4]; human): 0.2
